How the values were obtained:
[1] = target: Tyrosine-protein kinase Srms (Homo sapiens) (UniProt Q9H3Y6); settings: Compound concentration 1000.0 nM
[2] = target: Cyclin-dependent kinase 2 (Homo sapiens) (UniProt P24941); settings: Compound concentration 1000.0 nM
[3] = target: Non-receptor tyrosine-protein kinase TYK2 (Homo sapiens) (UniProt P29597); settings: Compound concentration 1000.0 nM
[4] = target: Serine/threonine-protein kinase Chk2 (Homo sapiens) (UniProt O96017); settings: Compound concentration 1000.0 nM
[5] = target: Glycogen synthase kinase-3 alpha (Homo sapiens) (UniProt P49840); settings: Compound concentration 1000.0 nM
[6] = target: Fibroblast growth factor receptor 2 (Homo sapiens) (UniProt P21802); settings: Compound concentration 1000.0 nM
[7] = test system: Epidermal growth factor receptor (Homo sapiens), P00533 [UNDEFINED MUTATION]; settings: Compound concentration 1000.0 nM
Chain of Epidermal growth factor receptor (Homo sapiens), P00533 [UNDEFINED MUTATION] (P00533 whole entry, looked up, change not shown): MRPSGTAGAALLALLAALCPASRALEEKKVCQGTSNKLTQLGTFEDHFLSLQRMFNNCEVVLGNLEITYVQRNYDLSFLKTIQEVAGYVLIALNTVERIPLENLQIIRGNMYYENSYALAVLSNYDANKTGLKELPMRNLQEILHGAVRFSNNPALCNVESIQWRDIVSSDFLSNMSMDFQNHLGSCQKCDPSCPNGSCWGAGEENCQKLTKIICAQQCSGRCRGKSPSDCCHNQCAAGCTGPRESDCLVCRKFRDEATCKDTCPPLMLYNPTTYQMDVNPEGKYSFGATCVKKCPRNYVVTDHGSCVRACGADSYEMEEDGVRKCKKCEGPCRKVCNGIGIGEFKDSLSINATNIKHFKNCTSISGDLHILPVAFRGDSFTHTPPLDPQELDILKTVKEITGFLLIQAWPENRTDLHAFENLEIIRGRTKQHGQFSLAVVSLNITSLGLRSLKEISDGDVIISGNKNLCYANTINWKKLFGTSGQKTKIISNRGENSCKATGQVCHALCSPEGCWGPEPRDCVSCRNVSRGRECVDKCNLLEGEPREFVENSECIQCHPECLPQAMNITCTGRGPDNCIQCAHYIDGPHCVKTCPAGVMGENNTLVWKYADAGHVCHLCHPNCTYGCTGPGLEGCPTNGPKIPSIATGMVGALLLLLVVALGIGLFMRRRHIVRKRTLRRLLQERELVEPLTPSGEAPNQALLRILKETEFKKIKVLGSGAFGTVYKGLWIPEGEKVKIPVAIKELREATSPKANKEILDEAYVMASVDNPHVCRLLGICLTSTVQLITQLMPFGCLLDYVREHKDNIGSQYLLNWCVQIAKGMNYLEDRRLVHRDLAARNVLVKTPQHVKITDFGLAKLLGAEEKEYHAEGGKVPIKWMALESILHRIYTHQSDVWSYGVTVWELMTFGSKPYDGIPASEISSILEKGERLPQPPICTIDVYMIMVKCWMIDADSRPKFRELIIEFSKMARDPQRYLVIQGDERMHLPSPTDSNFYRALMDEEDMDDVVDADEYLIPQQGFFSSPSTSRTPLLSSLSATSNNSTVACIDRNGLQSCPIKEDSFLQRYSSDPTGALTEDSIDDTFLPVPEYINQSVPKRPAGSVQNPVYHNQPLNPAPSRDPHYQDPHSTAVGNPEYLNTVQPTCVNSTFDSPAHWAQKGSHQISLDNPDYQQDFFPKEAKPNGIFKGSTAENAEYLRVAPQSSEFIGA

[8] = target: Calcium/calmodulin-dependent protein kinase type 1D (Homo sapiens) (UniProt Q8IU85); settings: Compound concentration 1000.0 nM
[9] = target: Serine/threonine-protein kinase DCLK1 (Homo sapiens) (UniProt O15075); settings: Compound concentration 1000.0 nM
Chain of Serine/threonine-protein kinase DCLK1 (Homo sapiens) (O15075 whole entry): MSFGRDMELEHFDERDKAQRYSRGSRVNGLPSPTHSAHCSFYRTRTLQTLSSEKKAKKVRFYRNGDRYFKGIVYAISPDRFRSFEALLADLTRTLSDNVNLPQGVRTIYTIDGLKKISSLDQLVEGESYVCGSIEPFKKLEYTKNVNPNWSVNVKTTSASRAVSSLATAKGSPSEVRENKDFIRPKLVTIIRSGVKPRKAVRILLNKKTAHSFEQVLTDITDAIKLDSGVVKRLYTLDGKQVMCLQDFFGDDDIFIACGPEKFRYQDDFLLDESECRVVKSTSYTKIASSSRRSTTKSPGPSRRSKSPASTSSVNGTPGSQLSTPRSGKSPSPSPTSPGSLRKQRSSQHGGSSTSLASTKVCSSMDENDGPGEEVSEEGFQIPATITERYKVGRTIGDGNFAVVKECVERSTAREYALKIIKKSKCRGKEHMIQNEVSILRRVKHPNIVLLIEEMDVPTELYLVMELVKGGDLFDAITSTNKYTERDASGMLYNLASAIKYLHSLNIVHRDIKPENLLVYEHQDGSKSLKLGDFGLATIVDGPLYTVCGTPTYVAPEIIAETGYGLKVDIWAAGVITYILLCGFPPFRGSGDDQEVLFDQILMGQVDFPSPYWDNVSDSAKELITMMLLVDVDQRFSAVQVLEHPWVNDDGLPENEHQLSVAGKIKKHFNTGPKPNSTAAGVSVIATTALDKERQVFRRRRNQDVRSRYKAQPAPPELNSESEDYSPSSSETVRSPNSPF

[10] = target: Dual specificity mitogen-activated protein kinase kinase 1 (Homo sapiens) (UniProt Q02750); settings: Compound concentration 1000.0 nM
[11] = test system: Epidermal growth factor receptor (Homo sapiens), P00533 [UNDEFINED MUTATION]; settings: Compound concentration 1000.0 nM; remark: listed apart in the source
[12] = target: Serine/threonine-protein kinase D2 (Homo sapiens) (UniProt Q9BZL6); settings: Compound concentration 1000.0 nM
[13] = target: Serine/threonine-protein kinase OSR1 (Homo sapiens) (UniProt O95747); settings: Compound concentration 1000.0 nM
[14] = target: Ephrin type-B receptor 4 (Homo sapiens) (UniProt P54760); settings: Compound concentration 1000.0 nM
Chain of Ephrin type-B receptor 4 (Homo sapiens) (P54760 whole entry): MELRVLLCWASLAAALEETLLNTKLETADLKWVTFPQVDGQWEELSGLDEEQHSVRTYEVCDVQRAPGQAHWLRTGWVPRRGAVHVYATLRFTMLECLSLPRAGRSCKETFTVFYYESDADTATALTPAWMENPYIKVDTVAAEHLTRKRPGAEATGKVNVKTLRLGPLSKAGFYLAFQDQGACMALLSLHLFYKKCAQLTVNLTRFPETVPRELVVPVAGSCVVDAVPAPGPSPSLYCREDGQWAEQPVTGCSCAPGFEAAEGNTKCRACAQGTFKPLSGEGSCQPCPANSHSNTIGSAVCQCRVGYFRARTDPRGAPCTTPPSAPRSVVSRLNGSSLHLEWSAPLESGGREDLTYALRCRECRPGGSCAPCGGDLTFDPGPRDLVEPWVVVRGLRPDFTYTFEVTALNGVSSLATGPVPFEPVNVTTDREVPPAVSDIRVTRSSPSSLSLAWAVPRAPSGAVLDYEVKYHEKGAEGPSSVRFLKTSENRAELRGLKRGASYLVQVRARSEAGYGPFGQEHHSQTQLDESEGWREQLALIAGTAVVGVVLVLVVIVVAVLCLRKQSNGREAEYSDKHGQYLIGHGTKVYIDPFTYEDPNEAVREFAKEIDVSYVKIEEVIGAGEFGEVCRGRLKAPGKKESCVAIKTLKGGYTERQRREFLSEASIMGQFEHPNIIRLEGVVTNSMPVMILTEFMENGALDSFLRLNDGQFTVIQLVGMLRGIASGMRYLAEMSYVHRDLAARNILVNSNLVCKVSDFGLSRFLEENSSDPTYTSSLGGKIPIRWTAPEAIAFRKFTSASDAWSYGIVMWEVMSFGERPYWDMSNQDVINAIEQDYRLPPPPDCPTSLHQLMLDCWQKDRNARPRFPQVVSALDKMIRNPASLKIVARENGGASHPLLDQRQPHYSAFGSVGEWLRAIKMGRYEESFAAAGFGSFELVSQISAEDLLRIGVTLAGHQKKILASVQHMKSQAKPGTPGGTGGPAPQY

[15] = test system: Epidermal growth factor receptor (Homo sapiens), P00533 [UNDEFINED MUTATION]; settings: Compound concentration 1000.0 nM; remark: listed apart in the source
[16] = target: Dual specificity mitogen-activated protein kinase kinase 4 (Homo sapiens) (UniProt P45985); settings: Compound concentration 1000.0 nM
Chain of Dual specificity mitogen-activated protein kinase kinase 4 (Homo sapiens) (P45985 whole entry, the tested form may be a part): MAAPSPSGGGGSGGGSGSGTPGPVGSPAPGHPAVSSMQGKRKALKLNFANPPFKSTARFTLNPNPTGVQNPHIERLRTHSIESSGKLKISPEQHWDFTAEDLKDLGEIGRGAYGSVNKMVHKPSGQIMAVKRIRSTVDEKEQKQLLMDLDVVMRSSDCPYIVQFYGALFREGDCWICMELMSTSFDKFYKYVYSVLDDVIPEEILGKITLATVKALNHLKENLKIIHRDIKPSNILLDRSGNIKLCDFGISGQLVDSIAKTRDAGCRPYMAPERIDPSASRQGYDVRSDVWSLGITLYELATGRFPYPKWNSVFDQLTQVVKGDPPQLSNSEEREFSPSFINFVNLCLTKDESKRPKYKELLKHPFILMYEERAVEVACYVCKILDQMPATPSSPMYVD

[17] = target: LIM domain kinase 1 (Homo sapiens) (UniProt P53667); settings: Compound concentration 1000.0 nM
Chain of LIM domain kinase 1 (Homo sapiens) (P53667 whole entry, looked up, the tested form may be a part): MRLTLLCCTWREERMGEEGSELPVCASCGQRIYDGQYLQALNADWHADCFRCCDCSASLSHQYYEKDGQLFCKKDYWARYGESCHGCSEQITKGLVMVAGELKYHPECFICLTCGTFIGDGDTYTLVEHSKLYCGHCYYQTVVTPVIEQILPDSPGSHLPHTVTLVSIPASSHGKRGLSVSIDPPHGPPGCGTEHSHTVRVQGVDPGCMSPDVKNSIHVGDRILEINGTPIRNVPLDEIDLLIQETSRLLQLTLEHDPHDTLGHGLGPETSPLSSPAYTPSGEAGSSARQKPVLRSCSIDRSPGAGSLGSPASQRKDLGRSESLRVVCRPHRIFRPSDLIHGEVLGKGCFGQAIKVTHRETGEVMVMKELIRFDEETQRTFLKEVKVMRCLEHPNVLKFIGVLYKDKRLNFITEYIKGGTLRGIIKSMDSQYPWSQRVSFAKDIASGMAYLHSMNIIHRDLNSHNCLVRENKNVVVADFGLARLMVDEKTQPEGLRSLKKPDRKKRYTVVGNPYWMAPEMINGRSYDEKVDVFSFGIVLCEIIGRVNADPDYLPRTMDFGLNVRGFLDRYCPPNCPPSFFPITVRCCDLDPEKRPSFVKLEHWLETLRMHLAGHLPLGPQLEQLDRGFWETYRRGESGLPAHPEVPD

[18] = target: Vascular endothelial growth factor receptor 1 (Homo sapiens) (UniProt P17948); settings: Compound concentration 1000.0 nM
[19] = test system: ALK tyrosine kinase receptor (Homo sapiens), Q9UM73 [L1196M]; settings: Compound concentration 1000.0 nM
[20] = target: Dual specificity protein kinase CLK2 (Homo sapiens) (UniProt P49760); settings: Compound concentration 1000.0 nM
[21] = target: Serine/threonine-protein kinase N2 (Homo sapiens) (UniProt Q16513); settings: Compound concentration 1000.0 nM
[22] = target: Glycogen synthase kinase-3 beta (Homo sapiens) (UniProt P49841); settings: Compound concentration 1000.0 nM
[23] = target: Histamine H1 receptor (Homo sapiens) (UniProt P35367); settings: Compound concentration 10.0 uM
[24] = target: Casein kinase II subunit alpha' (Homo sapiens) (UniProt P19784); settings: Compound concentration 1000.0 nM
Chain of Casein kinase II subunit alpha' (Homo sapiens) (P19784 whole entry, looked up): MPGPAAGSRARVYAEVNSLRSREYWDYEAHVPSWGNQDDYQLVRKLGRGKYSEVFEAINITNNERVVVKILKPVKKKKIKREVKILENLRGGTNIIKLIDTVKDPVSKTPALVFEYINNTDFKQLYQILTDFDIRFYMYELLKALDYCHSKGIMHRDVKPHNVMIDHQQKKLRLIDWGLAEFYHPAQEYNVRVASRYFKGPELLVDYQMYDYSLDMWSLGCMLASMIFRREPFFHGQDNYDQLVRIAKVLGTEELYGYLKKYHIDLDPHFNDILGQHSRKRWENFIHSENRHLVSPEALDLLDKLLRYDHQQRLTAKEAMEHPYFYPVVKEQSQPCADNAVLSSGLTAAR

[25] = target: Dual specificity protein kinase TTK (Homo sapiens) (UniProt P33981); settings: Compound concentration 1000.0 nM
[26] = target: Cyclin-dependent kinase 4 (Homo sapiens) (UniProt P11802); settings: Compound concentration 1000.0 nM
[27] = test system: ALK tyrosine kinase receptor (Homo sapiens), Q9UM73 [C1156Y]; settings: Compound concentration 1000.0 nM
[28] = target: Cyclin-dependent kinase 11A (Homo sapiens) (UniProt Q9UQ88); settings: Compound concentration 1000.0 nM
[29] = target: Casein kinase I isoform delta (Homo sapiens) (UniProt P48730); settings: Compound concentration 1000.0 nM
[30] = target: Inhibitor of nuclear factor kappa-B kinase subunit alpha (Homo sapiens) (UniProt O15111); settings: Compound concentration 1000.0 nM
[31] = target: Discoidin domain-containing receptor 2 (Homo sapiens) (UniProt Q16832); settings: Compound concentration 1000.0 nM
[32] = test system: Receptor-type tyrosine-protein kinase FLT3 (Homo sapiens), P36888 [D835Y]; settings: Compound concentration 1000.0 nM
[33] = target: Dual specificity mitogen-activated protein kinase kinase 5 (Homo sapiens) (UniProt Q13163); settings: Compound concentration 1000.0 nM
Chain of Dual specificity mitogen-activated protein kinase kinase 5 (Homo sapiens) (Q13163 whole entry, canonical isoform): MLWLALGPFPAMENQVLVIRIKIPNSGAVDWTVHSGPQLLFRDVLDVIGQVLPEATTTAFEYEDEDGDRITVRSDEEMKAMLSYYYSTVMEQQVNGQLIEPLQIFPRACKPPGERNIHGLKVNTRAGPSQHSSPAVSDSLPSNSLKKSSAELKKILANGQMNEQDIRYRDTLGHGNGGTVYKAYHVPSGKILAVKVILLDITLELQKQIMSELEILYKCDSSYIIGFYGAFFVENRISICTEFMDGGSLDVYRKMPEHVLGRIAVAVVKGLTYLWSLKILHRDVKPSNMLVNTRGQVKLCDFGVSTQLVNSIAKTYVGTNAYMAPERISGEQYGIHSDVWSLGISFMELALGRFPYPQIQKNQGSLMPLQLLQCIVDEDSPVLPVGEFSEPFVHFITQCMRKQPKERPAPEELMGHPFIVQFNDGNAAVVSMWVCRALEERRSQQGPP

[34] = test system: Phosphatidylinositol 4,5-bisphosphate 3-kinase catalytic subunit alpha isoform (Homo sapiens), P42336 [I800L]; settings: Compound concentration 1000.0 nM
[35] = target: Protein kinase C theta type (Homo sapiens) (UniProt Q04759); settings: Compound concentration 1000.0 nM
[36] = target: Leucine-rich repeat serine/threonine-protein kinase 2 (Homo sapiens) (UniProt Q5S007); settings: Compound concentration 1000.0 nM
[37] = target: MAP/microtubule affinity-regulating kinase 4 (Homo sapiens) (UniProt Q96L34); settings: Compound concentration 1000.0 nM
[38] = target: T1, Alpha-2A adrenergic receptor (Homo sapiens) (UniProt P08913); settings: Compound concentration 10.0 uM
T1 sequence (whole entry): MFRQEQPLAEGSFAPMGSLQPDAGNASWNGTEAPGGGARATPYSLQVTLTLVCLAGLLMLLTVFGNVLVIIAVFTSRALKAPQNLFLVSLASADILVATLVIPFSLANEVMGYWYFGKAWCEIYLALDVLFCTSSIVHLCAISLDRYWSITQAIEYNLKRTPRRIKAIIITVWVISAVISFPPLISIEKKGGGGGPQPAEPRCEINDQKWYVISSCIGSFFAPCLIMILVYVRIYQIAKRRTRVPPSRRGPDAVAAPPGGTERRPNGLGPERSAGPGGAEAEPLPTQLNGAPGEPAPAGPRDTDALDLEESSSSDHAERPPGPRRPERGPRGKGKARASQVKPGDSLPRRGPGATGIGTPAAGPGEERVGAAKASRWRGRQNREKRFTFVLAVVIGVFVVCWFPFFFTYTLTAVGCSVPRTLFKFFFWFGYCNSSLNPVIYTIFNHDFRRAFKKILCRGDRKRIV

[39] = target: Dual specificity protein kinase CLK1 (Homo sapiens) (UniProt P49759); settings: Compound concentration 1000.0 nM

| Structure (SMILES) | residual activity [1] | residual activity [2] | residual activity [3] | residual activity [4] | residual activity [5] | residual activity [6] | residual activity [7] | residual activity [8] | residual activity [9] | residual activity [10] | residual activity [11] | residual activity [12] | residual activity [13] | residual activity [14] | residual activity [15] | residual activity [16] | residual activity [17] | residual activity [18] | residual activity [19] | residual activity [20] | other results |
| --- | --- | --- | --- | --- | --- | --- | --- | --- | --- | --- | --- | --- | --- | --- | --- | --- | --- | --- | --- | --- | --- |
| NS(=O)(=O)c1cc(NC(=O)C2(c3ccccc3Cl)CC2)ccc1Oc1cccc(Cl)c1 [BAY-207] | 77% | 82% | 100% | 100% | 90% | 100% | 85% | 97% | 68% | 88% | 46% | 87% | 100% | 57% | 96% | 100% | 100% | 100% | 85% | 97% | residual activity [21]: 83%; residual activity [22]: 100%; inhibition [23]: 17.9%; residual activity [24]: 100%; residual activity [25]: 100%; residual activity [26]: 70%; residual activity [27]: 100%; residual activity [28]: 73%; residual activity [29]: 83%; residual activity [30]: 100%; residual activity [31]: 96%; residual activity [32]: 100%; residual activity [33]: 94%; residual activity [34]: 100%; residual activity [35]: 88%; residual activity [36]: 89%; residual activity [37]: 82%; inhibition [38]: 40.8%; residual activity [39]: 59% |
| NS(=O)(=O)c1cc(NC(=O)Cc2ccccc2)ccc1Oc1cccc(Cl)c1 [BAY-1797] | 78% | 100% | 90% | 81% | 93% | 61% | 76% | 100% | 86% | 97% | 58% | 85% | 78% | 98% | 86% | 82% | 87% | 80% | 62% | 91% | residual activity [21]: 90%; residual activity [22]: 80%; inhibition [23]: 15.7%; residual activity [24]: 100%; residual activity [25]: 91%; residual activity [26]: 71%; residual activity [27]: 88%; residual activity [28]: 95%; residual activity [29]: 93%; residual activity [30]: 63%; residual activity [31]: 87%; residual activity [32]: 95%; residual activity [33]: 88%; residual activity [34]: 82%; residual activity [35]: 74%; residual activity [36]: 72%; residual activity [37]: 100%; inhibition [38]: 6.31%; residual activity [39]: 67% |

Source: ChEMBL document CHEMBL4507265 (2021)
